Patent publication US9999222B2, “Herbicidal combination comprising azines” (BASF SE, priority 2014, dated 2018)
Several values for one entry are separate records, joined by “and”; a condition that tells them apart may be missing. Identical values can stand only once. Like-named read-outs stand apart in the source and are kept apart here.

Key:
Experiment in all cases: Greenhouse test, pre-emergence treatment
ELEIN = format: in vivo, Eleusine indica; details: 500 g ai/ha
How it was run: (§1)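 Seeds were sown in loamy sand with approximately 3.0% humus, then sprayed at once with actives suspended or emulsified in water. Pots were watered, hooded until rooting, held at 10-25° C. or 20-35° C. by species for 2 to 4 weeks, and scored 0 (no damage) to 100 (no emergence/complete destruction).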

EPHHL = format: in vivo, Euphorbia heterophylla; details: Euphorbia heterophylla, pre-emergence, 480 h, pre-emergence, 1000 g ai/ha; read-out: observed % activity 20 DAT
How it was run: as §1

ALOMY = format: in vivo, Alopecurus myosuroides; details: pre-emergence
How it was run: as §1

GERPU = format: in vivo, Geranium pusillum; details: Geranium pusillum, pre-emergence, 480 h, pre-emergence, read-out: observed % activity 20 DAT
How it was run: as §1

COMBE = format: in vivo, Commelina benghalensis; details: Commelina benghalensis, 480 h, pre-emergence, read-out: observed % activity 20 DAT
How it was run: as §1

SETFA = format: in vivo, Setaria faberi
How it was run: as §1

GALAP = format: in vivo, Galium aparine; details: Galium aparine, pre-emergence, 480 h, 500 g ai/ha, 20 DAT; read-out: observed % activity
How it was run: as §1

ECHCG = format: in vivo, Echinocloa crus-galli; details: Echinochloa crus-galli, 480 h, read-out: observed % activity 20 DAT
How it was run: as §1

POLCO = format: in vivo, Polygonum convolvulus; details: pre-emergence
How it was run: as §1

BRADC = format: in vivo, Brachiaria decumbens; details: Urochloa decumbens, pre-emergence, 480 h
How it was run: as §1

LOLMU = format: in vivo, Lolium multiflorum; details: Lolium multiflorum, pre-emergence, 480 h, pre-emergence, read-out: observed % activity 20 DAT
How it was run: as §1

CENCY = format: in vivo, Centaurea cyanus
PHACA = format: in vivo, Phalaris canariensis; details: Phalaris canariensis, pre-emergence, 480 h, pre-emergence, read-out: observed % activity 20 DAT
How it was run: as §1

KCHSC = format: in vivo, Kochia scoparia; details: Bassia scoparia, 480 h, pre-emergence, read-out: observed % activity 20 DAT
How it was run: as §1

AVEFA = format: in vivo, Avena fatua; details: pre-emergence
How it was run: as §1

## CCC(CC)Nc1c([N+](=O)[O-])cc(C)c(C)c1[N+](=O)[O-] [Pendimethalin, pendimethalin]
ELEIN
  observed % activity 20 DAT: 100%
EPHHL
  pest or weed control at 1000 g/ha: 55%
ALOMY; Alopecurus myosuroides, 480 h, 250 g ai/ha, 20 DAT, read-out: observed % activity
  inhibition at 250 g/ha: 60%
ALOMY; Alopecurus myosuroides, 480 h, 500 g ai/ha, 20 DAT, read-out: observed % activity
  inhibition at 500 g/ha: 85%
ALOMY; Alopecurus myosuroides, 480 h, 250 g ai/ha, read-out: observed % activity 20 DAT
  pest or weed control at 250 g/ha: 45%
ALOMY; Alopecurus myosuroides, 480 h, 500 g ai/ha, read-out: observed % activity 20 DAT
  pest or weed control at 500 g/ha: 65%
ALOMY; Alopecurus myosuroides, 480 h, 1000 g ai/ha, read-out: observed % activity 20 DAT
  pest or weed control at 1000 g/ha: 80%
ALOMY; Alopecurus myosuroides, 480 h, use rate 125 g ai/ha, read-out: observed % activity 20 DAT
  inhibition at 125 g/ha: 55%
ALOMY; Alopecurus myosuroides, 480 h, use rate 250 g ai/ha, 20 DAT, read-out: observed % activity 20 DAT
  pest or weed control at 250 g/ha: 15%
ALOMY; Alopecurus myosuroides, 480 h, use rate 1000 g ai/ha, 20 DAT, read-out: observed % activity 20 DAT
  pest or weed control at 1000 g/ha: 95%
ALOMY; Alopecurus myosuroides, 480 h, use rate 1000 g ai/ha, read-out: observed % activity 20 DAT
  inhibition at 1000 g/ha: 95%
ALOMY; use rate 500 g ai/ha
  observed % activity 20 DAT: 65% and 90%
ALOMY; use rate 1000 g ai/ha
  observed % activity 20 DAT: 75%
GERPU; use rate 125 g ai/ha, 20 DAT
  pest or weed control at 125 g/ha: 90%
GERPU; use rate 125 g ai/ha
  inhibition at 125 g/ha: 70%
GERPU; use rate 250 g ai/ha
  inhibition at 250 g/ha: 90%
GERPU; use rate 500 g ai/ha, 20 DAT
  pest or weed control at 500 g/ha: 70%
COMBE; 500 g ai/ha
  pest or weed control at 500 g/ha: 10%
COMBE; 1000 g ai/ha
  pest or weed control at 1000 g/ha: 40%
SETFA; Setaria faberi, 480 h, use rate 125 g ai/ha, read-out: observed % activity 20 DAT
  inhibition at 125 g/ha: 98%
SETFA; Setaria faberi, 480 h, use rate 500 g ai/ha, read-out: observed % activity 20 DAT
  inhibition at 500 g/ha: 98%
SETFA; use rate 500 g ai/ha, 20 DAT
  observed % activity 20 DAT: 98%
GALAP
  inhibition at 500 g/ha: 30%
ECHCG; use rate 125 g ai/ha
  inhibition at 125 g/ha: 95%
ECHCG; use rate 250 g ai/ha, 20 DAT
  pest or weed control at 250 g/ha: 98%
ECHCG; use rate 250 g ai/ha
  inhibition at 250 g/ha: 98%
POLCO; Fallopia convolvulus, 480 h, use rate 500 g ai/ha, 20 DAT, read-out: observed % activity 20 DAT
  pest or weed control at 500 g/ha: 60%
POLCO; Fallopia convolvulus, 480 h, 250 g ai/ha, 20 DAT, read-out: observed % activity
  inhibition at 250 g/ha: 50%
POLCO; Fallopia convolvulus, 480 h, 500 g ai/ha, 20 DAT, read-out: observed % activity
  inhibition at 500 g/ha: 60%
POLCO; Fallopia convolvulus, 480 h, use rate 125 g ai/ha, read-out: observed % activity 20 DAT
  inhibition at 125 g/ha: 0%
POLCO; Fallopia convolvulus, 480 h, use rate 500 g ai/ha, read-out: observed % activity 20 DAT
  inhibition at 500 g/ha: 60%
POLCO; use rate 500 g ai/ha
  observed % activity 20 DAT: 45%
BRADC; 500 g ai/ha, 20 DAT, read-out: observed % activity
  inhibition at 500 g/ha: 75%
BRADC; 250 g ai/ha, read-out: observed % activity 20 DAT
  pest or weed control at 250 g/ha: 35%
BRADC; 500 g ai/ha, read-out: observed % activity 20 DAT
  pest or weed control at 500 g/ha: 55%
LOLMU; use rate 125 g ai/ha
  inhibition at 125 g/ha: 0%
LOLMU; use rate 250 g ai/ha
  inhibition at 250 g/ha: 0%
LOLMU; use rate 1000 g ai/ha, 20 DAT
  pest or weed control at 1000 g/ha: 55%
LOLMU; use rate 1000 g ai/ha
  inhibition at 1000 g/ha: 55%
CENCY; 500 g ai/ha
  observed % activity 20 DAT: 25%
CENCY; 1000 g ai/ha
  observed % activity 20 DAT: 0%
PHACA; 250 g ai/ha
  pest or weed control at 250 g/ha: 0%
PHACA; 500 g ai/ha
  pest or weed control at 500 g/ha: 45%
PHACA; use rate 125 g ai/ha
  inhibition at 125 g/ha: 35%
PHACA; use rate 250 g ai/ha, 20 DAT
  pest or weed control at 250 g/ha: 55%
PHACA; use rate 250 g ai/ha
  inhibition at 250 g/ha: 55%
PHACA; use rate 500 g ai/ha
  inhibition at 500 g/ha: 65%
KCHSC; use rate 500 g ai/ha, 20 DAT
  pest or weed control at 500 g/ha: 80%
KCHSC; use rate 125 g ai/ha
  inhibition at 125 g/ha: 60%
AVEFA; Avena fatua, 480 h, 500 g ai/ha, 20 DAT, read-out: observed % activity
  inhibition at 500 g/ha: 0%
AVEFA; 250 g ai/ha
  observed % activity 20 DAT: 0%
